Data set [1] has as its system unfractionated human bone marrow cells. Briefly: Toxicity in normal bone marrow cells (PI and annexin V, flow cytometry). In kind it is cell-based. Particulars: 5-20 μg/ml, 24 to 48 h. Here is the method:
The RPMI-8226 cell line was supplied by W. Dalton (Univ. Arizona). U266 and H929 cell lines were obtained from the American Type Culture Collection (Rockville, Md.). Cell lines were grown in RPMI 1640 (Gibco, Grand Island, N.Y.) supplemented with 5% fetal bovine serum (Hyclone, Logan, Utah). Normal bone marrow samples were obtained from allogeneic transplant donors at the Fred Hutchison Cancer Research Center, Seattle, Wash., with appropriate patient consent and Internal Review Board approval. Primary cells were maintained in Iscove's medium (Gibco) supplemented with 10% bovine calf serum, 100 ng/ml stem cell factor (Amgen, Thousand Oaks, Calif.), and 50 ng/ml interleukin-3 (Biosource, Camarillo, Calif.).
Cell survival was assayed by exclusion of propidium iodide (PI; 10 μg/ml) by unfixed cells. Annexin V-FITC (Pharmingen) or 3, 3′-dihexyloxacarbocyanine iodide (DiOC6(3); Molecular Probes) staining was analyzed together with PI to discriminate early apoptotic cells. Apoptotic cells were also measured as sub-G1 events among ethanol-fixed cells stained with 10 μg/ml PI. All cell samples were analyzed using a benchtop FACSCalibur™ (Becton Dickinson, San Jose, Calif.). Flow data were analyzed using MultiCycle AV software (Phoenix Flow Systems). For intracellular pH measurements, cell pellets were washed once and resuspended in 2 ml of HEPES-buffered medium (no phenol red and no serum). […]

Data set [2] in a line: Binding to plasma proteins (ultrafiltration). In kind it is in vitro ADME, mouse. The following applies: mouse, plasma, presence of NaF+EDTA, read-out: Protein binding, Mouse. How it is done:
Solutions of 2-OMe antimycin A3 were diluted with plasma (dog or human) containing NaF+EDTA to final concentrations of 1.0 or 0.2 μg/ml. Controls were diluted with water to the same final concentrations. These preparations were incubated at 37° C. for 20 min, at which time portions were taken and placed in the sample reservoirs of Amicon Centrifree® ultrafiltration systems (Millipore Co., Bedford, Mass.). At 37° C., the filter systems were centrifuged until the reservoirs were dry. From each filtrate, portions were taken for analysis by HPLC. The amounts present were designated as “free drug” (F). The concentrations of the unfiltered solutions were also determined by triplicate analyses. This amount represented the “total drug” concentration (T). The percentage of 2-OMe antimycin A3 bound to plasma proteins was calculated by the following formula: % bound=((T−F)/T)×100

Data set [3] deals with mitochondria from TABX1A cells. Briefly: Swelling of isolated mitochondria (absorbance at 540 nm). The following applies: even at much higher concentrations. Also noted: species or system murine.
Data set [4] relates to control mitochondria (TABX1A cells). Briefly: Rhodamine 123 retention assay. Also noted: species or system murine. How it is done: Rh-123 is a cationic lipid-soluble fluorescent dye that accumulates in mitochondria in proportion to the mitochondrial membrane potential. Mitochondria were isolated from TABX2S cells (over-expressing Bcl-xL) and from control cells, prepared as described in Example 2. The isolated mitochondria were loaded with Rh-123 by incubating with 10 μM Rh-123 for 30 minutes, washed and resuspended in buffer. […] Less than 40% of Rh-123 was retained in antimycin A-treated TABX2S mitochondria, compared with greater than 80% retained in control mitochondria.
In contrast, the control cells, which express BCl-xL at physiological levels, were resistant to BH3 peptide-induced membrane depolarization.

Take 2-methoxy antimycin A [2-OMeA]: the “sensitivity of primary lymphoid and myeloid bone marrow cell subpopulations” value in data set [1] was “insensitive”. With `CCCC[C@H]1C(=O)OC(C)[C@H](NC(=O)c2cccc(NC=O)c2OC)C(=O)O[C@@H](C)C1OC(=O)CC(C)C` (some centres unmarked) [2-OMeA3, Antimycin A3 methyl ether], the fraction unbound at 20 min, 1000 ng/ml in data set [2] was less than 0.01. As to antimycin A, the mitochondrial swelling entry in data set [3] is “did not exhibit similar permeability changes and swelling”. Also, the Rh123 dye leakage result in data set [4] (BH3 peptide 3.5 μM) is reported as “minimally affected”. Moreover, in data set [4] (five minutes after adding), the Rh-123 retained entry is reported as “greater than 80%”.

The record behind these values is patent US20050239873A1 (priority 1999, published 2005).
